Assay results: paper PMC6099682, “(-)-Shikimic Acid as a Chiral Building Block for the Synthesis of New Cytotoxic 6-Aza-Analogues of Angucyclinones” (Molecules : A Journal of Synthetic Chemistry and Natural …, 2018)
Like-named read-outs stand apart in the source and are kept apart here.

Columns and labels:
PC-3 (prostate cancer) = assay: Sulforhodamine B cytotoxicity assay, PC-3; format: cell-based; conditions: for IC50: 72 h continuous exposure, SRB assay, mean ± SD; for Selectivity index (SI), ratio of IC50 in CoN in cancer cells, PC-3: CCD841-CoN IC50 / PC-3 IC50
Description: (§1) To analyse the scope of the shikimic-fragment incorporated in the angucycline scaffold on the cytotoxic activity of these compounds, we included five previously obtained compounds (Figure 2, [32]). Therefore, the cytotoxicity of the new nine synthesised compounds, and of the five aforementioned compounds, was evaluated in vitro against different cancer cell lines: PC-3 (prostate cancer), HT-29 (colon cancer), MCF-7 (breast cancer), and one non-tumoral cell line, human colon epithelial cells (CCD841 CoN). A conventional colorimetric assay was set up to estimate the IC50 values, which represent the concentration of a drug that is required for 50% inhibition in vitro after 72 h of continuous exposure to the test compounds. Several serial dilutions (from 1.25 to 100 µM) for each sample were evaluated in triplicate.
(§2) The experimental cell lines were obtained from the American Type Culture Collection. HT-29 (colon cancer cell line), PC-3 (prostate cancer), MCF-7 (breast cancer), and CCD841 CoN (colon epithelial) were grown in DMEM-F12 containing 10% FCS, 100 U/mL penicillin, 100 µg/mL streptomycin, and 1 mM glutamine.
(§3) The in vitro cytotoxic activities of all the compounds were evaluated on cell lines previously mentioned by the sulforhodamine B assay, according to [42]. Briefly, cells were seeded at a plating density of 5 × 10^3 cells/well into 96 well plates. Cells were incubated at 37 °C for 24 h to allow cell attachment. The test compounds at indicated final concentrations were added to the culture medium and the cell cultures were continued for 72 h under the same conditions. Stock solutions of compounds were prepared in DMSO. Control cultures received 0.1% DMSO alone. At the end of the treatment, cells were fixed with trichloroacetic acid (50% w/v) at 4 °C and, subsequently, washed with water. Cells were stained with 0.1% sulforhodamine B in 1% acetic acid for 30 min. Posteriorly, the cells were washed acetic acid (1%) to remove unbound sulforhodamine B. Protein-bound stain was solubilized with 10 mM unbuffered Tris base). The optical density was determined using a […] plate reader (540 nm). The obtained values are transformed to percentages of viable cells versus control treatment and the IC50 values calculated for each compound in the cell lines were studied using the SigmaPlot 12.0 software (Systat Software, San Jose, CA, USA). Values shown are the mean ± SD of the three independent experiments in triplicate.

HT-29 (colon cancer) = assay: Sulforhodamine B cytotoxicity assay, HT-29; format: cell-based; conditions: for IC50: 72 h continuous exposure, SRB assay, mean ± SD; for Selectivity index (SI), ratio of IC50 in CoN in cancer cells, HT-29: CCD841-CoN IC50 / HT-29 IC50
Description: as §1, §2, §3

MCF-7 (breast cancer) = assay: Sulforhodamine B cytotoxicity assay, MCF-7; format: cell-based; conditions: for Selectivity index (SI), ratio of IC50 in CoN in cancer cells, MCF-7: CCD841-CoN IC50 / MCF-7 IC50; for IC50: Homo sapiens, MCF7, 72 h continuous exposure, SRB assay
Description: as §1, §2, §3

[1] = tested on: human colon epithelial cells (CCD841 CoN); assay: Sulforhodamine B cytotoxicity assay, non-tumoral CCD841 CoN; format: cell-based; conditions: CCD-841CoN, 72 h continuous exposure, SRB assay, mean ± SD
Description: as §1, §2, §3

[2] = mean ± SD, read-out: IC50 Values MCF-7

CN(C)N1C=C2C[C@@H](O[Si](C)(C)C(C)(C)C)[C@@H]3OC(C)(C)O[C@@H]3[C@H]2C2=C1C(=O)c1c(O)cccc1C2=O [Compound 7a]
IC50 (PC-3 (prostate cancer); 72 h): < 1 µM | IC50 (PC-3 (prostate cancer)): 0.7 ± 0.1 µM | Selectivity index (SI), ratio of IC50 in CoN in cancer cells, PC-3 (PC-3 (prostate cancer)): 3.3 | IC50 (HT-29 (colon cancer)): 0.2 ± 0.05 µM | Selectivity index (SI), ratio of IC50 in CoN in cancer cells, HT-29 (HT-29 (colon cancer)): 11.5 | IC50 (HT-29 (colon cancer); Homo sapiens, HT-29, 72 h): < 0.4 µM | Selectivity index (SI), ratio of IC50 in CoN in cancer cells, MCF-7 (MCF-7 (breast cancer)): 0.1 | IC50 (MCF-7 (breast cancer); [2]): 16 ± 1 µM | IC50 [1]: 2.3 ± 0.3 µM

CC(=O)Oc1cccc2c1C(=O)C1=C(C2=O)[C@H]2C(=CN1N(C)C)C[C@@H](O[Si](C)(C)C(C)(C)C)[C@@H]1OC(C)(C)O[C@H]21 [Compound 7b]
IC50 (PC-3 (prostate cancer); 72 h): 2.4 ± 0.9 µM | Selectivity index (SI), ratio of IC50 in CoN in cancer cells, PC-3 (PC-3 (prostate cancer)): 0.3 | Selectivity index (SI), ratio of IC50 in CoN in cancer cells, HT-29 (HT-29 (colon cancer)): 0.4 | IC50 (HT-29 (colon cancer); Homo sapiens, HT-29, 72 h): 2.1 ± 1.2 µM | Selectivity index (SI), ratio of IC50 in CoN in cancer cells, MCF-7 (MCF-7 (breast cancer)): 0.1 | IC50 (MCF-7 (breast cancer); [2]): 12.1 ± 4 µM | IC50 [1]: 0.8 ± 0.1 µM

CC1(C)O[C@@H]2[C@@H]3C(=CNC4=C3C(=O)c3ccccc3C4=O)C[C@@H](O[Si](C)(C)C(C)(C)C)[C@@H]2O1 [Compound 8]
IC50 (PC-3 (prostate cancer); 72 h): 5.7 ± 1.3 µM | Selectivity index (SI), ratio of IC50 in CoN in cancer cells, PC-3 (PC-3 (prostate cancer)): 2.4 | Selectivity index (SI), ratio of IC50 in CoN in cancer cells, HT-29 (HT-29 (colon cancer)): 1.8 | IC50 (HT-29 (colon cancer); Homo sapiens, HT-29, 72 h): 7.8 ± 0.9 µM | Selectivity index (SI), ratio of IC50 in CoN in cancer cells, MCF-7 (MCF-7 (breast cancer)): 3.3 | IC50 (MCF-7 (breast cancer); [2]): 4.2 ± 4.2 µM | IC50 [1]: 13.8 ± 1 µM

CC1(C)O[C@@H]2[C@H](O1)c1c(cnc3c1C(=O)c1ccccc1C3=O)C[C@H]2O[Si](C)(C)C(C)(C)C [Compound 9a]
IC50 (PC-3 (prostate cancer); 72 h): 7.6 ± 1.2 µM | Selectivity index (SI), ratio of IC50 in CoN in cancer cells, PC-3 (PC-3 (prostate cancer)): 0.4 | Selectivity index (SI), ratio of IC50 in CoN in cancer cells, HT-29 (HT-29 (colon cancer)): 0.8 | IC50 (HT-29 (colon cancer); Homo sapiens, HT-29, 72 h): 3.7 ± 0.8 µM | Selectivity index (SI), ratio of IC50 in CoN in cancer cells, MCF-7 (MCF-7 (breast cancer)): 0.2 | IC50 (MCF-7 (breast cancer); [2]): 17.8 ± 3 µM | IC50 [1]: 2.8 ± 0.4 µM

CC1(C)O[C@@H]2[C@H](O1)c1c(cnc3c1C(=O)c1c(O)ccc(O)c1C3=O)C[C@H]2O[Si](C)(C)C(C)(C)C [Compound 9b]
IC50 (PC-3 (prostate cancer); 72 h): 13.1 ± 2 µM | Selectivity index (SI), ratio of IC50 in CoN in cancer cells, PC-3 (PC-3 (prostate cancer)): 1.2 | Selectivity index (SI), ratio of IC50 in CoN in cancer cells, HT-29 (HT-29 (colon cancer)): 1.1 | IC50 (HT-29 (colon cancer); Homo sapiens, HT-29, 72 h): 15 ± 4.2 µM | Selectivity index (SI), ratio of IC50 in CoN in cancer cells, MCF-7 (MCF-7 (breast cancer)): 0.6 | IC50 (MCF-7 (breast cancer); [2]): 28.3 ± 4 µM | IC50 [1]: 15.6 ± 2.1 µM

CO[C@@H]1[C@@H]2C(=CN(N(C)C)C3=C2C(=O)c2ccccc2C3=O)C[C@@H](OC)[C@@H]1OC [Compound 15, (1R,2S,3R,12bR)-6-(Dimethylamino)-1,2,3-trimethoxy-1,2,3,4,6,12b-hexahydrobenzo[b]phenanthridine-7,12-dione]
IC50 (PC-3 (prostate cancer); 72 h): 34.8 ± 0.3 µM | Selectivity index (SI), ratio of IC50 in CoN in cancer cells, PC-3 (PC-3 (prostate cancer)): 2.3 | Selectivity index (SI), ratio of IC50 in CoN in cancer cells, HT-29 (HT-29 (colon cancer)): 2.8 | IC50 (HT-29 (colon cancer); Homo sapiens, HT-29, 72 h): 29.2 ± 6.8 µM | Selectivity index (SI), ratio of IC50 in CoN in cancer cells, MCF-7 (MCF-7 (breast cancer)): 1.0 | IC50 (MCF-7 (breast cancer); [2]): 78.1 ± 6.9 µM | IC50 [1]: 81.6 ± 15.8 µM | melting point: 128.5 °C

CO[C@@H]1[C@@H]2C(=CNC3=C2C(=O)c2ccccc2C3=O)C[C@@H](OC)[C@@H]1OC [Compound 16a, (1R,2S,3R,12bR)-1,2,3-Trimethoxy-1,2,3,4,6,12b-hexahydrobenzo[b]phenanthridine-7,12-dione]
IC50 (PC-3 (prostate cancer); 72 h): 23.6 ± 3.7 µM | Selectivity index (SI), ratio of IC50 in CoN in cancer cells, PC-3 (PC-3 (prostate cancer)): 4.9 | Selectivity index (SI), ratio of IC50 in CoN in cancer cells, HT-29 (HT-29 (colon cancer)): 2.7 | IC50 (HT-29 (colon cancer); Homo sapiens, HT-29, 72 h): 42.9 ± 8.4 µM | Selectivity index (SI), ratio of IC50 in CoN in cancer cells, MCF-7 (MCF-7 (breast cancer)): 1.0 | IC50 (MCF-7 (breast cancer); [2]): 118 ± 10.8 µM | IC50 [1]: 116 ± 17.8 µM | melting point: 161.5 °C

CO[C@@H]1[C@@H]2C(=CNC3=C2C(=O)c2cccc(O)c2C3=O)C[C@@H](OC)[C@@H]1OC [Compound 16b, (1R,2S,3R,12bR)-8-Hydroxy-1,2,3-trimethoxy-1,2,3,4,6,12b-hexahydrobenzo[b]phenanthridine-7,12-dione]
IC50 (PC-3 (prostate cancer); 72 h): 6.6 ± 1.1 µM | Selectivity index (SI), ratio of IC50 in CoN in cancer cells, PC-3 (PC-3 (prostate cancer)): 2.3 | Selectivity index (SI), ratio of IC50 in CoN in cancer cells, HT-29 (HT-29 (colon cancer)): 2.9 | IC50 (HT-29 (colon cancer); Homo sapiens, HT-29, 72 h): 5.3 ± 0.8 µM | Selectivity index (SI), ratio of IC50 in CoN in cancer cells, MCF-7 (MCF-7 (breast cancer)): 1.3 | IC50 (MCF-7 (breast cancer); [2]): 11.5 ± 3.1 µM | IC50 [1]: 15.5 ± 3.1 µM | melting point: 177.3 °C

CO[C@@H]1[C@@H]2C(=CNC3=C2C(=O)c2c(O)ccc(O)c2C3=O)C[C@@H](OC)[C@@H]1OC [Compound 16c, (1R,2S,3R,12bR)-8,11-Dihydroxy-1,2,3-trimethoxy-1,2,3,4,6,12b-hexahydrobenzo[b]phenanthridine-7,12-dione]
IC50 (PC-3 (prostate cancer); 72 h): 6.4 ± 0.8 µM | Selectivity index (SI), ratio of IC50 in CoN in cancer cells, PC-3 (PC-3 (prostate cancer)): 1.4 | Selectivity index (SI), ratio of IC50 in CoN in cancer cells, HT-29 (HT-29 (colon cancer)): 2.2 | IC50 (HT-29 (colon cancer); Homo sapiens, HT-29, 72 h): 4 ± 0.3 µM | Selectivity index (SI), ratio of IC50 in CoN in cancer cells, MCF-7 (MCF-7 (breast cancer)): 0.7 | IC50 (MCF-7 (breast cancer); [2]): 13.5 ± 0.9 µM | IC50 [1]: 8.8 ± 1.3 µM | melting point: 139 °C

CO[C@@H]1[C@H](OC)c2c(cnc3c2C(=O)c2ccccc2C3=O)C[C@H]1OC [Compound 17, (1R,2S,3R)-1,2,3-Trimethoxy-1,2,3,4-tetrahydrobenzo[b]phenanthridine-7,12-dione]
IC50 (PC-3 (prostate cancer); 72 h): 3.9 ± 0.6 µM | Selectivity index (SI), ratio of IC50 in CoN in cancer cells, PC-3 (PC-3 (prostate cancer)): 3.0 | IC50 (HT-29 (colon cancer)): 3.3 ± 0.9 µM | Selectivity index (SI), ratio of IC50 in CoN in cancer cells, HT-29 (HT-29 (colon cancer)): 3.6 | IC50 (HT-29 (colon cancer); Homo sapiens, HT-29, 72 h): ~3 µM | Selectivity index (SI), ratio of IC50 in CoN in cancer cells, MCF-7 (MCF-7 (breast cancer)): 1.0 | IC50 (MCF-7 (breast cancer); [2]): 11.9 ± 1.5 µM | IC50 [1]: 11.8 ± 1.3 µM | melting point: 184.8 °C

CO[C@H]1C=Cc2cnc3c(c2[C@@H]1OC)C(=O)c1cccnc1C3=O [Compound 19a, (1S,2S)-1,2-Dimethoxy-1,2-dihydropyrido[3,2-b]phenanthridine-7,12-dione]
Selectivity index (SI), ratio of IC50 in CoN in cancer cells, PC-3 (PC-3 (prostate cancer)): 0.5 | Selectivity index (SI), ratio of IC50 in CoN in cancer cells, MCF-7 (MCF-7 (breast cancer)): 4.0 | IC50 (MCF-7 (breast cancer); [2]): 0.01 ± 0.005 µM | IC50 (MCF-7 (breast cancer); read-out: IC50 value MCF-7): ~0.01 µM | IC50 [1]: 0.04 ± 0.01 µM | melting point: 78.8 °C

COc1cccc2cnc3c(c12)C(=O)c1ccccc1C3=O [Compound 20, 1-Methoxybenzo[b]phenanthridine-7,12-dione]
IC50 (PC-3 (prostate cancer); 72 h): 7.8 ± 1 µM | Selectivity index (SI), ratio of IC50 in CoN in cancer cells, PC-3 (PC-3 (prostate cancer)): 3.0 | IC50 (HT-29 (colon cancer)): 3.7 ± 1.2 µM | Selectivity index (SI), ratio of IC50 in CoN in cancer cells, HT-29 (HT-29 (colon cancer)): 6.4 | IC50 (HT-29 (colon cancer); Homo sapiens, HT-29, 72 h): ~3 µM | Selectivity index (SI), ratio of IC50 in CoN in cancer cells, MCF-7 (MCF-7 (breast cancer)): 1.7 | IC50 (MCF-7 (breast cancer); [2]): 14 ± 1.7 µM | IC50 [1]: 23.6 ± 3.4 µM
